For experiment [1], the system named is MHV-A59 virus-induced lung inflammation. The experiment can be described thus: MHV-A59 virus-induced lung inflammation of mice. The format is in vivo, C57BL/B6 mice. Conditions: 20 mg/kg/day by gavage for 5 days. Here is the method:
As viral pneumonia of C57BL/B6 mice can be induced by nasal dropping of an MHV-A59 virus, the ability of SP3101 to inhibit virus-induced lung inflammation of mice is studied using such model.
An MHV-A59 virus strain was purchased from Suzhou Xishan Biotechnology Co., Ltd. at a PFU/ml of 1.4×10^7.
6-week-old mice were divided into 3 groups with 8 mice in each group. After anesthesia, the mice in a blank control group were administered with normal saline through the noses, and viral pneumonia models of the other two groups were constructed as follows: 10 μL of an MHV was injected into the nose of each mouse at a PFU of 1.4×10^5 with 5 μL into the left nostril and the right nostril, respectively, and about 3-6 hours later, the mice woke up. The mice in a model treatment group were administered with an SP3101 aqueous solution by gavage at a dose of 20 mg/kg body weight/day (mg/kg/day).
After continuous administration for 5 days, the mice were anesthetized and dissected 4 hours after the last administration, and the lungs were taken out, fixed with paraformaldehyde and stored for hematoxylin-eosin (HE) section staining.

The test system of experiment [2] is inflammatory pain model (complete Freund's adjuvant). In words: Inflammatory pain model (complete Freund's adjuvant), mechanical pain threshold. Conditions: rats. It counts as in vivo, SD rats. Here is the method:
4 SD rats with a body weight of 200-250 g were used as a blank control (NC), and normal saline was injected into the soles of the left feet of the rats. Inflammatory pain models of 18 rats were constructed, that is to say, 100 μL of a complete Freund's adjuvant was injected into soles of the left feet of the rats, mechanical pain thresholds of the left feet were detected by an ALMEMO2490 data collector 24 hours later, 2 rats with a pain threshold of greater than 15 were abandoned, and the other 16 rats were randomly divided into 4 groups with 4 rats in each group and then administered with water as a positive control (PC), SP3101 (20 mg/kg), PQQ (20 mg/kg) and ibuprofen (25 mg/kg/day) by gavage, respectively.

Experiment [3] concerns cisplatin-induced hyperalgesia. In words: Cisplatin chemotherapy pain model. The format is in vivo, B6 mice. To be noted: 40 mg/kg/day by gavage, cisplatin 2.3 mg/kg/day i.p., mice, Von Frey 0.4 g and 1.0 g. The text has this:
20 12-week-old male B6 mice were selected and allowed to adapt to the environment for three days.
On DAY 1, basic mechanical pain thresholds were detected by using Von Frey fibrils, the mice with abnormal pain thresholds were abandoned (no abnormal mice were found in this batch), and the pain thresholds were basically about 1.4-2.0 g. According to the basic pain thresholds, a pain threshold of 0.4 g was used in this test, and a pain threshold of 1.0 g was used in subsequent detection Behaviors such as foot lifting and foot licking were identified as positive responses.
On DAYS 1-5, after the basic mechanical pain thresholds were detected, the mice were randomly divided into the following groups: (1) a model control group (n=10) and (2) an SP3101 group (n=10) administered by gavage at a dose of 40 mg/kg/day, where the mice in the model control group were administered with double distilled water by gavage, and the mice in the two groups were administered with cisplatin prepared with normal saline (2.3 mg/kg/day) by intraperitoneal injection 0.5 hour later.
On DAYS 6-10, the mice were only administered with SP3101 and water by gavage, and on DAY 7, the mechanical pain thresholds were detected.
On DAYS 11-15, the operations on DAYS 1-5 were repeated, and on DAY 15, the mechanical pain thresholds were detected. […]

The subject of experiment [4] is chronic constriction injury (CCI) model. In words: Neuropathic pain, CCI model of the sciatic nerve, Von Frey. It counts as in vivo, B6 mice. To be noted: 40 mg/kg by gavage, 1.5, 24 and 48 hours after administration, CCI mice, p<0.01. From the text: A CCI model was used for realizing neuropathic pain. 6- to 8-week-old B6 mice were anesthetized, shaved from the roots of the left legs to parts about 1-2 mm higher than the horizontal lines of the tail root bones, and cut horizontally to obtain small wounds. Muscles were bluntly separated by hemostatic forceps, the sciatic nerves were found and picked out with elbow tweezers, and 4-0 chromium-containing catgut sutures soaked in sterile normal saline in advance were picked out with another elbow tweezer. Three catgut sutures were penetrated through the sciatic nerve of each mouse and ligatured in an upper part, a middle part and a lower part at a distance of 1 mm, respectively at an appropriate intensity enabling surrounding muscles to have small and transient twitches. […]
On day 7 after surgery, mechanical pain thresholds of the mice were detected by using Von Frey fibrils. […] Then, the mice were stimulated again at an adjacent lower intensity, and the intensity interval of first positive responses and negative responses was recorded. […]
The test mice were divided into three groups: an unmolded group, a molded solvent group and a molded administration group. 0.5% methylcellulose was used as a solvent, SP3101 was used as a drug and administered at a dose of 40 mg/kg according to the body weight each time, and the pain thresholds were detected 1.5, 24, 48 and 72 hours after administration.

For experiment [5], the system named is AMPK. The experiment can be described thus: AMPK phosphorylation level in a variety of cells. To be noted: 100 nM. The format is cell-based.
Experiment [6] concerns autophagy related protein (LC3B). The experiment can be described thus: LC3B expression in RAW264.7 cells (protein hybridization). Conditions: different concentrations, 24 hours. The format is cell-based. Here is the method:
RAW264.7 cells were inoculated into two six-well plates and enabled to grow to a density of about 90%, and SP3101 and SP3102 of different concentrations were added, respectively. 24 hours later, the cells were lysed with a radio immunoprecipitation assay (RIPA) lysis buffer, and the expression of proteins was detected by protein hybridization.
Phosphorylation of serine at the 127th site of AMPK is used as an activation marker. […] It can be seen that the compounds, represented by the SP3101 and the SP3102, of the present invention are used as an AMPK agonist.

For the molecule `O=C1C(=O)c2nc(O)cc(C(=O)O)c2-c2[nH]ccc21` [SP3101, 4,5-dioxo-4,5-dihydro-1H-pyrrolo[2,3-f]quinone-7-hydroxy-9-carboxylic acid], in experiment [1], the “inhibition of virus-induced lung inflammation (HE sections)” value is on record as “obvious effect of inhibiting virus-induced lung inflammation”. The overall analgesic profile result in experiment [2] (CFA inflammatory pain model, oral) was “rapid analgesic effect and a long-acting analgesic effect”. Moreover, in experiment [2] (single oral 20 mg/kg, compared with model group (PC)), the “analgesic effect on day 5-7” value was “the analgesic effect is reduced”. Also, in experiment [2] (single oral dose (SP3101 20 mg/kg)), the “duration of the analgesic effect” value was found to be 72 h. The “analgesic effect 1.5 hours after oral administration” value in experiment [2] (single oral dose (SP3101 20 mg/kg), mechanical pain threshold vs model group) is “obvious analgesic effect”. For the same molecule, the “alleviation of cisplatin-induced hyperalgesia” value in experiment [3] was “obvious effect of alleviating”. Further, in experiment [4], the “analgesic effect (Von Frey mechanical pain threshold)” value is listed as “obvious analgesic effect”. Further, in experiment [5], the “phosphorylation level of the AMPK” value was “significantly up-regulate”. The “expression of autophagy related protein (LC3B)” value in experiment [6] is listed as “also increased”.

The record behind these values is patent US20240199601A1, “QUINONE COMPOUND AND PHARMACEUTICAL USE THEREOF” (NANJING SHUPENG LIFE SCIENCE CO., LTD., priority 2021, published 2024).
